This is an account of results in patent publication US20060223747A1, “Therapeutic agent for soft tissue sarcoma” (Fujisawa Pharmaceutical Co. Ltd., priority 2003, published 2006).

Experiment [1] has as its system SYO-1 synovial sarcoma cell strain (SYT-SSX protein expressing). The experiment can be described thus: MTT cell growth assay, SYO-1 synovial sarcoma cell strain. The note with it: SYO-1 cells; FK228 0.1-100 nM; exposure 24, 48, 96 hr; FIG. 3. In kind it is cell-based. From the text:
(§1) An SYT-SSX protein expressing synovial sarcoma cell line HS-SY-2 (established and kindly provided by Dr. Hiroshi Sonobe, Department of Pathology, National Fukuyama Hospital), YaFuSS (established and kindly provided by Dr. Junya Toguchida, Department of Tissue Regeneration, Institute for Frontier Medical Sciences, Kyoto University) and SYO-1 (established and kindly provided by Dr. Akira Kawai, Department of Orthopedics, Faculty of Medicine, Okayama University (now Department of Orthopedics, National Cancer Center)) were cultured in DMEM (Dulbecco's modified Eagle's medium) containing 10% (v/v) fetal bovine serum (FBS), 100 U/ml penicillin and 100 μg/ml streptomycin at 37° C. under 5% CO2 environment. These cells were plated and cultured for 24 hr, detached with 0.25% (w/v) trypsin and recovered. For cell growth ability, an MTT analysis kit (Colorimetric (MTT) assay for cell survival and proliferation kit of CHEMICON International, Inc.) was used. Each cell strain was plated in a 96 well microtiter plate at 10^3 cell/well, and after culture for 24 hr, exposed to a 0.1% (v/v) dilute ethanol solution of FK228 at a concentration distribution of 0.1 nM, 0.2 nM, 1 nM, 50 nM and 100 nM, and 0.1% (v/v) ethanol (Et-OH 0.1% in FIG. 1) as a control. After exposure for 24 hr, 48 hr and 96 hr, each culture was passed through a 570 nm filter and the absorbance was measured. […]
On the technique in general: Tetrazolium dyes change colour on reduction, which living cells bring about.

In experiment [2] the test system is YaFuSS synovial sarcoma cell strain (SYT-SSX protein expressing). Kind of experiment: MTT cell growth assay, YaFuSS synovial sarcoma cell strain. It counts as cell-based. The note with it: YaFuSS cells; FK228 0.1-100 nM; exposure 24, 48, 96 hr; FIG. 2.
Excerpt: as §1

Experiment [3] deals with HS-SY-2 synovial sarcoma cell strain (SYT-SSX protein expressing). Kind of experiment: MTT cell growth assay, HS-SY-2 synovial sarcoma cell strain. In kind it is cell-based. The note with it: HS-SY-2 cells; FK228 0.1-100 nM; exposure 24, 48, 96 hr; FIG. 1.
Excerpt: as §1

The subject of experiment [4] is HTB93 synovial sarcoma cell strain (SW982; not expressing SYT-SSX protein). The experiment can be described thus: MTT cell growth assay (survival rate), HTB93 synovial sarcoma cell strain. It counts as cell-based. The note with it: for antitumor activity against synovial sarcoma cell strain not expressing SYT-SSX protein: summary statement, HTB93 (SW982). The procedure: An SYT-SSX protein non-expressing synovial sarcoma cell line HTB93 (purchased from ATCC: American Type Culture Collection) was cultured in DMEM (Dulbecco's modified Eagle's medium) containing 10% (v/v) fetal bovine serum (FBS), 100 U/ml penicillin and 100 μg/ml streptomycin at 37° C. under 5% CO2 environment. These cells were plated and cultured for 24 hr, detached with 0.25% (w/v) trypsin and recovered. For cell growth ability, an MTT analysis kit (Colorimetric MTT) assay for cell survival and proliferation kit of CHEMICON International, Inc.) was used. Each cell strain was plated in a 96 well microtiter plate at 2×10^3 cell/well, and after culture for 24 hr, exposed to a 0.1% (v/v) dilute ethanol solution of FK228 at a concentration distribution of 0.001 nM, 0.01 nM, 0.1 nM, 0.5 nM, 1 nM, 5 nM, 10 nM, 50 nM and 100 nM, 0.1% (v/v) ethanol as a control and the medium alone as a blank. After exposure for 24 hr, 48 hr, 72 hr and 96 hr, each culture was passed through a 570 nm filter and the absorbance was measured. All were performed with n=4.
For the results, average values of the FK228 addition sample, control and blank were taken, and using numerical values obtained by subtracting a blank value from the value of the FK228 addition sample or control, a percentage corresponding to the ratio of the numerical value of the FK228 addition sample relative to that of the control was taken as survival rate (%).

The test system of experiment [5] is SYO-1 synovial sarcoma cell strain (SYT-SSX protein expressing). The experiment can be described thus: Tumor volume after subcutaneous implantation of SYO-1 cells in nude mice. In kind it is in vivo, BALB/C/nu/nu nude mice. Conditions: for antitumor activity in vivo against SYT-SSX protein expressing cells: summary statement. The procedure:
Inbred male (BALB/C/nu/nu) nude mice were supplied by Charles River Japan, Inc. The animals were all fed and handled according to the Animal Test Guideline, Animal Resources Division, Advanced Science Research Center, Okayama University. FK228 was administered after 10 days from subcutaneous implantation of 10^5 cells each of the SYO-1 cell strain. The tumor volume was assumed by measuring two diameters perpendicular to each other using calipers and from the following formula (tumor volume=⅙π [(d1×d2)^3/2] (wherein d1 and d2 are two perpendicular diameters)). The dose was evaluated by intravenously administering a dilute FK228 solution (50 μl, 10% HCO60 which is polyoxyethylene (60) hydrogenated castor oil, diluted with physiological saline) at 0 mg/kg, 1.6 mg/kg or 3.2 mg/kg to 20 animals, and as a control, a 3.2 mg/kg dilute FK228 solution was intravenously injected to 7 animals free of tumor implantation. The administration was performed 3 times every 4 days, the tumor volume was also measured every 4 days, as well as after completion of the administration.

In a further experiment the test system is histone deacetylase. Conditions: reported in JP-B-7-64872; Experimental Cell Research (1998) 241, 126-133; cited from earlier work.
Experiment [6] concerns SYT-SSX protein expressing cells (HS-SY-2, YaFuSS, SYO-1). Kind of experiment: In vitro antitumor activity against SYT-SSX protein expressing cells (summary statement). It counts as cell-based. The source says: In an attempt to solve the above-mentioned problems, the present inventors have considered that, in synovial sarcoma, formation of the aforementioned complex of SYT-SSX protein, a chromatin remodeling-associated protein and histone deacetylase (HDAC)-associated protein enhances histone deacetylase activity, which in turn has an effect on the canceration, development and/or proliferation, of synovial sarcoma, and have conducted intensive studies of the effect of histone deacetylase inhibition on various synovial sarcoma cell strains (HS-SY-2, YaFuSS, SYO-1) that express SYT-SSX protein. […]

Turning to `C/C=C1\NC(=O)[C@H]2CSSCC/C=C/[C@H](CC(=O)N[C@H](C(C)C)C(=O)N2)OC(=O)[C@H](C(C)C)NC1=O` [FK228], the “in vitro antitumor effect” value in experiment [1], in experiment [2] and in experiment [3] was “showed an in vitro antitumor effect” in each case. Further, the “in vitro antitumor effect (survival rate)” value in experiment [4] (HTB93 cells, FK228 0.001-100 nM, exposure 24, 48, 72, 96 hr, FIG. 5) is given as “showed an in vitro antitumor effect”. The “antitumor activity against synovial sarcoma cell strain not expressing SYT-SSX protein” value in experiment [4] is listed as “potent antitumor activity”. In addition, in experiment [5] (SYO-1 subcutaneous implant, i.v. 1.6 or 3.2 mg/kg, 3 times every 4 days, FIG. 4), the “in vivo antitumor effect (tumor volume)” value is “showed an in vivo antitumor effect”. The “antitumor activity in vivo against SYT-SSX protein expressing cells” value in experiment [5] is listed as “potent antiturnor activity”. In addition, in the experiment with histone deacetylase, the histone deacetylase inhibition entry is recorded as “selectively inhibits histone deacetylase”. The “antitumor activity in vitro against SYT-SSX protein expressing cells” value in experiment [6] is “potent antiturnor activity”.
As to `C/C=C1\NC(=O)C2CSSCC/C=C/C(CCNC(C(C)C)C(=O)N2)OC(=O)C(C(C)C)NC1=O` (stereo not shown) [compound A], the histone deacetylase inhibition entry in the experiment with histone deacetylase was “selectively inhibits histone deacetylase”.
Consider `CC(/C=C/C(=O)NO)=C\[C@@H](C)C(=O)c1ccc(N(C)C)cc1` [tricostatin A, Trichostatin A, reference compound], for which the “antitumor activity against synovial sarcoma cell strain not expressing SYT-SSX protein” value in experiment [4] is “potent antitumor activity”. Moreover, the “antitumor activity in vivo against SYT-SSX protein expressing cells” value in experiment [5] was “potent antiturnor activity”. Moreover, the “antitumor activity in vitro against SYT-SSX protein expressing cells” value in experiment [6] is “potent antiturnor activity”.
